PubChem BioAssay AID248 (DTP/NCI, 2004)
“And” between values parts separate entries of the source, which are not always exact repeats. Equal entries are not always repeated. Toxic doses and inconclusive results are not listed. Rule as the data show it: active = T/C of 150% or more; inactive = T/C below 125%.

Tested on: L1210 leukemia ip in BDF1 mice, survival T/C
Assay: NCI In Vivo Anticancer Drug Screen. Data for tumor model L1210 Leukemia (intraperitoneal) in B6D2F1 (BDF1) mice
Details: endpoint: mean survival time, higher = longer survival
In short: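 Transplantable tumor model; survival measured in treated vs vehicle control mice. Value = treated/control.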

[1] = dose: 100.0 mg/kg/injection, schedule: Q01DX001 (ip), vehicle: Klucel (hydroxypropylcellulose) (HPC)
[2] = dose: 100.0 mg/kg/injection, schedule: Q01DX009 (ip), vehicle: saline with Tween-80
[3] = dose: 200.0 mg/kg/injection, schedule: Q01DX001 (ip), vehicle: Klucel (hydroxypropylcellulose) (HPC)
[4] = dose: 200.0 mg/kg/injection, schedule: Q01DX009 (ip), vehicle: saline with Tween-80
[5] = dose: 400.0 mg/kg/injection, schedule: Q01DX001 (ip), vehicle: Klucel (hydroxypropylcellulose) (HPC)
[6] = dose: 400.0 mg/kg/injection, schedule: Q01DX009 (ip), vehicle: saline with Tween-80
[7] = dose: 100.0 mg/kg/injection, schedule: Q01DX001 (ip), vehicle: saline
[8] = dose: 200.0 mg/kg/injection, schedule: Q01DX001 (ip), vehicle: saline
[9] = dose: 400.0 mg/kg/injection, schedule: Q01DX001 (ip), vehicle: saline
[10] = dose: 100.0 mg/kg/injection, schedule: Q04DX003 (ip), vehicle: Klucel (hydroxypropylcellulose) (HPC)
[11] = dose: 200.0 mg/kg/injection, schedule: Q04DX003 (ip), vehicle: Klucel (hydroxypropylcellulose) (HPC)
[12] = dose: 400.0 mg/kg/injection, schedule: Q04DX003 (ip), vehicle: Klucel (hydroxypropylcellulose) (HPC)
[13] = dose: 100.0 mg/kg/injection, schedule: Q04DX002 (ip), vehicle: saline with Tween-80
[14] = dose: 200.0 mg/kg/injection, schedule: Q04DX002 (ip), vehicle: saline with Tween-80
[15] = dose: 400.0 mg/kg/injection, schedule: Q04DX002 (ip), vehicle: saline with Tween-80
[16] = dose: 100.0 mg/kg/injection, schedule: Q04DX002 (ip), vehicle: Klucel (hydroxypropylcellulose) (HPC)
[17] = dose: 100.0 mg/kg/injection, schedule: Q04DX003 (ip), vehicle: saline with Tween-80
[18] = dose: 200.0 mg/kg/injection, schedule: Q04DX002 (ip), vehicle: Klucel (hydroxypropylcellulose) (HPC)
[19] = dose: 200.0 mg/kg/injection, schedule: Q04DX003 (ip), vehicle: saline with Tween-80
[20] = dose: 400.0 mg/kg/injection, schedule: Q04DX002 (ip), vehicle: Klucel (hydroxypropylcellulose) (HPC)
[21] = dose: 400.0 mg/kg/injection, schedule: Q04DX003 (ip), vehicle: saline with Tween-80
[22] = dose: 100.0 mg/kg/injection, schedule: Q01DX001 (ip), vehicle: other
[23] = dose: 200.0 mg/kg/injection, schedule: Q01DX001 (ip), vehicle: other
[24] = dose: 400.0 mg/kg/injection, schedule: Q01DX001 (ip), vehicle: other

Measured: T/C

CCCCCCCN(CCCCCCC)CC(O)c1cc(-c2ccc(Cl)cc2)nc2c(C(F)(F)F)cccc12 (stereo unspecified)
inactive: [1] 104 % of control | [2] 102 % of control | [3] 96 % of control | [4] 100 % of control | [5] 100 % of control | [6] 100 % of control

Cn1c(SCc2ccccc2)nccc1=O
inactive: dose: 100.0 mg/kg/injection, schedule: Q01DX009 (ip), vehicle: Klucel (hydroxypropylcellulose) (HPC) 96 % of control | dose: 200.0 mg/kg/injection, schedule: Q01DX009 (ip), vehicle: Klucel (hydroxypropylcellulose) (HPC) 104 % of control

O=S(=O)(/C=C/c1ccccc1)N1CCCCC1
inactive: [7] 103 % of control | [8] 102 % of control | [9] 102 % of control

O=C(O)/C=C/C1CCCCC1
inactive: dose: 75.0 mg/kg/injection, schedule: Q01DX001 (ip), vehicle: saline 97 % of control | dose: 150.0 mg/kg/injection, schedule: Q01DX001 (ip), vehicle: saline 95 % of control | dose: 300.0 mg/kg/injection, schedule: Q01DX001 (ip), vehicle: saline 95 % of control

Cc1cccc(C[P+](C/C=C/c2ccccc2)(c2ccccc2)c2ccccc2)c1
inactive: dose: 6.25 mg/kg/injection, schedule: Q04DX003 (ip), vehicle: Klucel (hydroxypropylcellulose) (HPC) 92 % of control | dose: 12.5 mg/kg/injection, schedule: Q04DX003 (ip), vehicle: Klucel (hydroxypropylcellulose) (HPC) 92 % of control

CCN(CC)CCCC(C)Nc1nc(/C=C/c2ccc(Cl)cc2)nc(Cl)c1-c1ccc(Cl)cc1 (stereo unspecified)
inactive: [7] 89 % of control | [10] 95 % of control | [8] 88 % of control | [11] 101 % of control | [9] 96 % of control | [12] 104 % of control

CC(=O)c1cccc(O)c1
inactive: [13] 98 % of control | [14] 95 % of control | [15] 102 % of control

Cc1cc(Cl)ccc1OC(=O)Nc1ccccc1Cl
inactive: dose: 100.0 mg/kg/injection, schedule: Q01DX001 (ip), vehicle: saline with Tween-80 97 % of control | [2] 102 % of control and 106 % of control | [16] 103 % of control | [13] 105 % of control and 89 % of control | [17] 96 % of control | dose: 200.0 mg/kg/injection, schedule: Q01DX001 (ip), vehicle: saline with Tween-80 94 % of control | [4] 100 % of control and 88 % of control | [18] 124 % of control | [14] 92 % of control and 100 % of control | [19] 100 % of control | dose: 400.0 mg/kg/injection, schedule: Q01DX001 (ip), vehicle: saline with Tween-80 99 % of control | [6] 102 % of control and 106 % of control | [20] 106 % of control | [15] 92 % of control and 105 % of control | [21] 96 % of control

CCCCCCCCOC(CN)C(Cl)(Cl)Cl (stereo unspecified)
inactive: dose: 6.25 mg/kg/injection, schedule: Q01DX009 (ip), vehicle: saline with Tween-80 103 % of control | dose: 6.25 mg/kg/injection, schedule: Q04DX003 (ip), vehicle: saline with Tween-80 91 % of control | dose: 12.5 mg/kg/injection, schedule: Q01DX009 (ip), vehicle: saline with Tween-80 100 % of control | dose: 12.5 mg/kg/injection, schedule: Q04DX003 (ip), vehicle: saline with Tween-80 94 % of control | dose: 25.0 mg/kg/injection, schedule: Q01DX009 (ip), vehicle: saline with Tween-80 100 % of control | dose: 25.0 mg/kg/injection, schedule: Q04DX003 (ip), vehicle: saline with Tween-80 94 % of control

c1ccc(C[As+](c2ccccc2)(c2ccccc2)c2ccccc2)cc1
inactive: dose: 5.0 mg/kg/injection, schedule: Q01DX001 (ip), vehicle: saline 101 % of control | dose: 6.25 mg/kg/injection, schedule: Q04DX002 (ip), vehicle: saline with Tween-80 97 % of control | dose: 10.0 mg/kg/injection, schedule: Q01DX001 (ip), vehicle: saline 90 % of control | dose: 12.5 mg/kg/injection, schedule: Q04DX002 (ip), vehicle: saline with Tween-80 86 % of control | dose: 20.0 mg/kg/injection, schedule: Q01DX001 (ip), vehicle: saline 93 % of control | dose: 25.0 mg/kg/injection, schedule: Q04DX002 (ip), vehicle: saline with Tween-80 101 % of control | dose: 40.0 mg/kg/injection, schedule: Q01DX001 (ip), vehicle: saline 109 % of control

O=[N+]([O-])c1ccc(NC2CCCCC2)c2c1no[n+]2[O-]
inactive: dose: 50.0 mg/kg/injection, schedule: Q04DX003 (ip), vehicle: saline with Tween-80 100 % of control | [17] 100 % of control | [19] 118 % of control

C(/C=C/c1ccccc1)=Nc1ccc2c(c1)Cc1ccccc1-2
inactive: [10] 94 % of control | [11] 89 % of control | [12] 89 % of control

O=S(=O)(Cc1ccccc1)C(Br)c1ccccc1 (stereo unspecified)
inactive: [22] 101 % of control | dose: 100.0 mg/kg/injection, schedule: Q04DX003 (ip), vehicle: saline 108 % of control | [23] 96 % of control | dose: 200.0 mg/kg/injection, schedule: Q04DX003 (ip), vehicle: saline 97 % of control | [24] 98 % of control | dose: 400.0 mg/kg/injection, schedule: Q04DX003 (ip), vehicle: saline 87 % of control

COc1ccc(NCc2ccccc2O)cc1
inactive: [22] 95 % of control | [23] 87 % of control | [24] 93 % of control

Cc1ccc(NC(=O)c2ccc([N+](=O)[O-])cc2)c(C)c1
inactive: [1] 91 % of control | [2] 96 % of control | [17] 94 % of control | [3] 94 % of control | [4] 102 % of control | [19] 96 % of control | [5] 112 % of control | [6] 96 % of control | [21] 99 % of control

C/C=C/CCC(C)=O
inactive: [17] 99 % of control | [19] 100 % of control | [21] 108 % of control

CC(C)(O)OC1COC(C2CS2)C1O (stereo unspecified)
inactive: [16] 94 % of control | [18] 98 % of control | [20] 102 % of control

Cc1cc(O)c2c(c1)OC(C)(C)C1=C2CC(C)CC1 (stereo unspecified)
inactive: dose: 75.0 mg/kg/injection, schedule: Q01DX009 (ip), vehicle: Klucel (hydroxypropylcellulose) (HPC) 96 % of control | dose: 150.0 mg/kg/injection, schedule: Q01DX009 (ip), vehicle: Klucel (hydroxypropylcellulose) (HPC) 92 % of control | dose: 300.0 mg/kg/injection, schedule: Q01DX009 (ip), vehicle: Klucel (hydroxypropylcellulose) (HPC) 101 % of control
